Assays:
[1] = target: 5-hydroxytryptamine 1D receptor (Bos taurus, UniProt Q8MI13)
[2] = target: 5-hydroxytryptamine receptor 1E (Homo sapiens, UniProt P28566)
5-hydroxytryptamine receptor 1E, sequence (P28566 whole entry): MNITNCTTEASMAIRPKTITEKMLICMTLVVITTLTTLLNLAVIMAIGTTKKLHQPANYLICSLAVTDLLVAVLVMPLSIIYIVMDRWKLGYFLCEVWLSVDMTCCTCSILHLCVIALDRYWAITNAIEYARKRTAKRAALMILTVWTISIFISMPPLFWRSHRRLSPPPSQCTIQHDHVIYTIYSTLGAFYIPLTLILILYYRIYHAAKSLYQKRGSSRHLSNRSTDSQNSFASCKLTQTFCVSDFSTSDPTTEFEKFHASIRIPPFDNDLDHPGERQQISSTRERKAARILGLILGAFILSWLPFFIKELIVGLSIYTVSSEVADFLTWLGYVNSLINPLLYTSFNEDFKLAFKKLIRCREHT

5-hydroxytryptamine 1D receptor, sequence (Q8MI13 whole entry): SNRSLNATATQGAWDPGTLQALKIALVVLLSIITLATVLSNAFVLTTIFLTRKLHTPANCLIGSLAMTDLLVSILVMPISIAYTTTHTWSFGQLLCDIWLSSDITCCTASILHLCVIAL

For `CCCN(CCC)C1CCc2cccc(O)c2C1` (stereo not given), the Ki [1] was 0.2 µM and the Ki [2] was 0.826 µM.
Work on `CN1C2CCC1CC(OC(=O)c1c[nH]c3ccccc13)C2` (stereo not given) yielded a Ki [1] greater than 10 µM and a Ki [2] greater than 10 µM.
Work on `CC[C@@H](CO)NC(=O)[C@@H]1C=C2c3cccc4c3c(cn4C)C[C@H]2N(C)C1` yielded a Ki [1] of 0.0088 µM and a Ki [2] of 0.059 µM.
In the case of `COc1cc(CC(C)N)c(OC)cc1Br` (stereo not drawn) [2-(4-Bromo-2,5-dimethoxy-phenyl)-1-methyl-ethylamine((-)-DOB)], the Ki [1] is reported as 1 µM and the Ki [2] is reported as 0.556 µM.
`O=C(c1ccc(F)cc1)C1CCN(CCn2c(=O)[nH]c3ccccc3c2=O)CC1` [3-(2-{4-[(4-fluorophenyl)carbonyl]piperidin-1-yl}ethyl)-1,2,3,4-tetrahydroquinazoline-2,4-dione] was tested, and the Ki [1] was 3.2 µM and the Ki [2] was greater than 10 µM.
`CN1C[C@H](C(=O)N[C@]2(C)O[C@@]3(O)[C@@H]4CCCN4C(=O)[C@H](Cc4ccccc4)N3C2=O)C=C2c3cccc4[nH]cc(c34)C[C@H]21` [12'-hydroxy-2'-methyl-5'alpha-(phenylmethyl)ergotaman-3',6',18-trione] showed a Ki [2] of 0.155 µM.
For `FC(F)(F)c1cccc(N2CCNCC2)c1` [TFMPP], the Ki [1] was 0.15 µM and the Ki [2] was 0.57 µM.
`NCCc1c[nH]c2ccc(O)cc12` [[3H]-5-HT] was tested, and the Ki [1] was 0.0019 µM.
`NCCc1c[nH]c2ccc(C(N)=O)cc12` [[3H]-5-carboxamidotryptamine] was tested, and the Ki [2] was 0.91 µM.
